Experimental data as given in ChEMBL document CHEMBL3272231, “beta-Adrenergic blocking agents. 16. 1-(Acylaminomethyl-, ureidomethyl-, and ureidoethylphenoxy)-3-amino-2-propanols” (1977).

Legend:
Type in all cases: functional
[1] = test system: Felis catus; assay: In vivo antagonist activity at beta-2 adrenergic receptor in cat assessed as inhibition of vasodepressor response administered as infusion for 30 mins relative to control
[2] = test system: Felis catus; assay: In vivo antagonist activity at beta-1 adrenergic receptor in cat assessed as inhibition of isoproterenol-induced tachycardia administered as infusion for 30 mins by cardiotachometric analysis; conditions: 0.5 h
[3] = test system: Rattus norvegicus; assay: Partial agonist activity at beta adrenergic receptor in catecholamine-depleted rat assessed as change in heart rate at 2.5 mg/kg, iv

## CCC(=O)NCc1ccccc1OCC(O)CNC(C)C (stereo unspecified)
[1]
  inhibition (INH): 0%
[2]
  ED50: 0.27 mg/kg
[3]
  Activity: 44 bpm

## CCCCNC(=O)NCCc1ccc(OCC(O)CNC(C)C)cc1 (stereo unspecified)
[1]
  inhibition (INH): 0%
[2]
  ED50: 0.515 mg/kg

## CC(=O)Nc1ccc(OCC(O)CNC(C)C)cc1 (stereo unspecified) [PRACTOLOL]
[1]
  inhibition (INH): 8%

## CC(=O)NCc1ccc(OCC(O)CNC(C)C)cc1 (stereo unspecified)
[1]
  inhibition (INH): 0%
[2]
  ED50: 0.142 mg/kg
[3]
  Activity: 2 bpm

## CC(=O)NCc1cccc(OCC(O)CNC(C)C)c1 (stereo unspecified)
[1]
  inhibition (INH): 83%
[2]
  ED50: 0.383 mg/kg

## CC(C)NCC(O)COc1ccc(CNC(N)=O)cc1Br (stereo unspecified)
[1]
  inhibition (INH): 25%
[2]
  ED50: 0.106 mg/kg

## CC(C)NCC(O)COc1ccc(CNC(N)=O)cc1 (stereo unspecified)
[1]
  inhibition (INH): 48%
[2]
  ED50: 0.117 mg/kg

## CC(=O)NCc1cc(C)ccc1OCC(O)CNC(C)C (stereo unspecified)
[1]
  inhibition (INH): 80%
[2]
  ED50: 0.381 mg/kg
[3]
  Activity: 5 bpm

## CC(C)NCC(O)COc1ccc(CCNC(N)=O)cc1 (stereo unspecified)
[1]
  inhibition (INH): 47%
[2]
  ED50: 0.101 mg/kg

## CCC(=O)NCc1ccc(OCC(O)CNC(C)C)c(OC)c1 (stereo unspecified)
[1]
  inhibition (INH): 37%
[2]
  ED50: 0.449 mg/kg
[3]
  Activity: -19 bpm

## CCC(=O)NCc1ccc(OCC(O)CNC(C)C)cc1 (stereo unspecified)
[1]
  inhibition (INH): 16%
[2]
  ED50: 0.658 mg/kg
[3]
  Activity: -6 bpm

## CCC(=O)NCc1ccc(OCC(O)CNC(C)C)c(Cl)c1 (stereo unspecified)
[1]
  inhibition (INH): 83%
[2]
  ED50: 0.63 mg/kg
[3]
  Activity: -15 bpm

## CC(=O)NCc1ccc(OCC(O)CNC(C)C)c(Br)c1 (stereo unspecified)
[1]
  inhibition (INH): 5%
[2]
  ED50: 0.083 mg/kg
[3]
  Activity: -17 bpm

## C=CCc1cc(CNC(=O)CC)ccc1OCC(O)CNC(C)C (stereo unspecified)
[1]
  inhibition (INH): 3%
[2]
  ED50: 0.098 mg/kg
[3]
  Activity: -10 bpm

## CCCNC(=O)NCCc1ccc(OCC(O)CNC(C)(C)C)cc1 (stereo unspecified)
[1]
  inhibition (INH): 27%
[2]
  ED50: 0.266 mg/kg

## CCCNC(=O)NCCc1ccc(OCC(O)CNC(C)C)cc1 (stereo unspecified)
[1]
  inhibition (INH): 19%
[2]
  ED50: 0.065 mg/kg

## CCCCCCC(=O)NCc1ccccc1OCC(O)CNC(C)C (stereo unspecified)
[1]
  inhibition (INH): 19%
[2]
  ED50: 1.16 mg/kg

## CCCc1cc(CNC(C)=O)ccc1OCC(O)CNC(C)C (stereo unspecified)
[1]
  inhibition (INH): 51%
[2]
  ED50: 0.04 mg/kg
[3]
  Activity: -17 bpm

## CCNC(=O)NCCc1ccc(OCC(O)CNC(C)C)cc1 (stereo unspecified)
[1]
  inhibition (INH): 51%
[2]
  ED50: 1.75 mg/kg

## C=CCc1cc(CNC(C)=O)ccc1OCC(O)CNC(C)C (stereo unspecified)
[1]
  inhibition (INH): 61%
[2]
  ED50: 0.035 mg/kg
[3]
  Activity: -16 bpm

## CC(=O)NCc1ccccc1OCC(O)CNC(C)(C)C (stereo unspecified)
[1]
  inhibition (INH): 63%
[2]
  ED50: 0.13 mg/kg
[3]
  Activity: 41 bpm

## CCCNC(=O)NCCc1ccc(OCC(O)CNC(C)C)c(OC)c1 (stereo unspecified)
[1]
  inhibition (INH): 6%
[2]
  ED50: 0.867 mg/kg

## CC(C)NCC(O)COc1ccc(CNC(=O)C(C)C)cc1Br (stereo unspecified)
[1]
  inhibition (INH): 43%
[2]
  ED50: 1.1 mg/kg
[3]
  Activity: -16 bpm

## CCC(=O)NCc1ccc(OCC(O)CNC(C)(C)C)c(Br)c1 (stereo unspecified)
[1]
  inhibition (INH): 21%
[2]
  ED50: 0.1 mg/kg
[3]
  Activity: 0 bpm

## CC(=O)NCc1ccc(OCC(O)CNC(C)(C)C)cc1 (stereo unspecified)
[1]
  inhibition (INH): 32%
[2]
  ED50: 0.21 mg/kg
[3]
  Activity: -7 bpm

## CC(C)NCC(O)COc1ccccc1CNC(=O)c1ccc(Cl)cc1 (stereo unspecified)
[1]
  inhibition (INH): 45%
[2]
  ED50: 0.304 mg/kg
[3]
  Activity: 14 bpm

## COc1cc(CNC(C)=O)ccc1OCC(O)CNC(C)C (stereo unspecified)
[1]
  inhibition (INH): 5%
[2]
  ED50: 0.312 mg/kg
[3]
  Activity: -9 bpm

## CCCCCCC(=O)NCc1ccc(OCC(O)CNC(C)(C)C)c(Cl)c1 (stereo unspecified)
[1]
  inhibition (INH): 40%
[2]
  ED50: 1.42 mg/kg

## CCOc1cc(CNC(=O)CC)ccc1OCC(O)CNC(C)(C)C (stereo unspecified)
[1]
  inhibition (INH): 68%
[2]
  ED50: 1.41 mg/kg

## CNC(=O)NCc1ccc(OCC(O)CNC(C)C)c(OC)c1 (stereo unspecified)
[1]
  inhibition (INH): 87%
[2]
  ED50: 0.794 mg/kg

## COc1cc(CNC(=O)C(C)C)ccc1OCC(O)CNC(C)C (stereo unspecified)
[1]
  inhibition (INH): 3%
[2]
  ED50: 1.14 mg/kg
[3]
  Activity: -16 bpm

## CCOc1cc(CNC(=O)CC)ccc1OCC(O)CNC(C)C (stereo unspecified)
[1]
  inhibition (INH): 48%
[2]
  ED50: 0.331 mg/kg
[3]
  Activity: -10 bpm

## CCC(=O)NCc1ccc(OCC(O)CNC(C)(C)C)c(OC)c1 (stereo unspecified)
[1]
  inhibition (INH): 72%
[2]
  ED50: 1.09 mg/kg
[3]
  Activity: -12 bpm

## COc1cc(CNC(N)=O)ccc1OCC(O)CNC(C)C (stereo unspecified)
[1]
  inhibition (INH): 0%
[2]
  ED50: 0.072 mg/kg

## CCCC(=O)NCc1ccc(OCC(O)CNC(C)C)cc1 (stereo unspecified)
[1]
  inhibition (INH): 51%
[2]
  ED50: 1.4 mg/kg

## CCCC(=O)NCc1ccc(OCC(O)CNC(C)(C)C)c(OC)c1 (stereo unspecified)
[1]
  inhibition (INH): 17%
[2]
  ED50: 0.282 mg/kg
[3]
  Activity: -10 bpm

## CNC(=O)NCc1ccc(OCC(O)CNC(C)C)c(Cl)c1 (stereo unspecified)
[1]
  inhibition (INH): 21%
[2]
  ED50: 0.381 mg/kg

## CNC(=O)NCc1ccc(OCC(O)CNC(C)C)c(Br)c1 (stereo unspecified)
[1]
  inhibition (INH): 0%
[2]
  ED50: 0.572 mg/kg

## CCNC(=O)NCc1ccc(OCC(O)CNC(C)C)c(Cl)c1 (stereo unspecified)
[1]
  inhibition (INH): 63%
[2]
  ED50: 1.76 mg/kg

## COc1cc(CNC(N)=O)ccc1OCC(O)CNC(C)(C)C (stereo unspecified)
[1]
  inhibition (INH): 68%
[2]
  ED50: 0.075 mg/kg

## CC(=O)NCc1ccc(OCC(O)CNC(C)(C)C)c(Cl)c1 (stereo unspecified)
[1]
  inhibition (INH): 30%
[2]
  ED50: 0.021 mg/kg
[3]
  Activity: -30 bpm

## CNC(=O)NCCc1ccc(OCC(O)CNC(C)C)c(Br)c1 (stereo unspecified)
[1]
  inhibition (INH): 97%
[2]
  ED50: 0.88 mg/kg

## COc1ccc(CCNCC(O)COc2ccc(CNC(C)=O)cc2Cl)c(OC)c1 (stereo unspecified)
[1]
  inhibition (INH): 17%
[2]
  ED50: 1.5 mg/kg

## CCC(=O)NCc1ccc(OCC(O)CNC(C)C)c(Br)c1 (stereo unspecified)
[1]
  inhibition (INH): 7%
[2]
  ED50: 0.269 mg/kg
[3]
  Activity: -15 bpm

## CNC(=O)NCCc1ccc(OCC(O)CNC(C)C)cc1 (stereo unspecified)
[2]
  ED50: 0.193 mg/kg

## COc1cc(CNC(C)=O)ccc1OCC(O)CNC(C)(C)C (stereo unspecified)
[1]
  inhibition (INH): 70%
[2]
  ED50: 0.045 mg/kg
[3]
  Activity: -16 bpm

## CCCc1cc(CNC(=O)CC)ccc1OCC(O)CNC(C)C (stereo unspecified)
[1]
  inhibition (INH): 34%
[2]
  ED50: 0.163 mg/kg
[3]
  Activity: 4 bpm
